According to PMC6274503, “Chemical Constituents of Muehlenbeckia tamnifolia (Kunth) Meisn (Polygonaceae) and Its In Vitro α-Amilase and α-Glucosidase Inhibitory Activities” (Molecules, 2016):
Read-outs that look alike come from different tables or passages of the source.

Columns and labels:
[1] = target: α-glucosidase from Saccharomyces cerevisiae; experiment: α-glucosidase inhibition assay (p-NPG substrate, pNP release over 60 min); assay type: biochemical; settings: for IC50: compounds and acarbose, max concentration tested 1 mM, '-' = no inhibitory activity at maximum dose tested
Method: (§1) The α-amylase and α-glucosidase assays were evaluated using α-amylase from porcine pancreas (Type IV-B, Sigma A3176, St. Louis, MO, USA) and α-glucosidase from Saccharomyces cerevisiae (Tipe I, Sigma G5003, St. Louis, MO, USA). Starch was used as substrate for α-amylase and p-Nitrophenyl-α-D-glucopiranoside (p-NPG-Sigma, N1377) was used as substrate for α-glucosidase. For both enzymatic tests, a microplate reader (EPOCH 2, Biotek Instruments Inc. Winoosky, VT, USA) was used.
α-Glucosidase inhibitory activity was determined using a 96-well microtiter plate with p-nitrophenyl-α-D-glucopyranoside as the substrate, according to the method describe by Tao et al. [32], with slight modifications. Sample solutions were prepared by dissolving 10 mg in 1 mL MeOH:H2O (50:50). Several dilutions in PBS were made in case of getting complete enzyme inhibition. First, 75 μL of PBS (SIGMA-P4417) was mixed with 5 μL of the sample and 20 μL of the enzyme solution (0.15 U/mL in PBS pH 7.4), then it was pre-incubated at 37 °C for 5 min prior to the initiation of the reaction by adding the substrate. After pre-incubation, 20 μL of PNPG (5 mM in phosphate buffer, pH 7.4) was added and then incubated at 37 °C. […] The results were expressed as inhibition percentage by means of the formula described by Choi et al. [33] as follows: (2) Inhibition (%)=[(Ao−As)/Ao]×100 where A0 is the absorbance recorded for the enzymatic activity without inhibitor (control), and As is the absorbance recorded for the enzymatic activity in presence of the inhibitor (sample). IC50 value was calculated by curve fitting of data (GraphPad Prism 5.0).

[2] = target: T1, α-amylase from porcine pancreas (Sus scrofa, UniProt P00690); experiment: α-amylase inhibitory activity (starch-iodine method); assay type: biochemical
T1 sequence (P00690 16-511): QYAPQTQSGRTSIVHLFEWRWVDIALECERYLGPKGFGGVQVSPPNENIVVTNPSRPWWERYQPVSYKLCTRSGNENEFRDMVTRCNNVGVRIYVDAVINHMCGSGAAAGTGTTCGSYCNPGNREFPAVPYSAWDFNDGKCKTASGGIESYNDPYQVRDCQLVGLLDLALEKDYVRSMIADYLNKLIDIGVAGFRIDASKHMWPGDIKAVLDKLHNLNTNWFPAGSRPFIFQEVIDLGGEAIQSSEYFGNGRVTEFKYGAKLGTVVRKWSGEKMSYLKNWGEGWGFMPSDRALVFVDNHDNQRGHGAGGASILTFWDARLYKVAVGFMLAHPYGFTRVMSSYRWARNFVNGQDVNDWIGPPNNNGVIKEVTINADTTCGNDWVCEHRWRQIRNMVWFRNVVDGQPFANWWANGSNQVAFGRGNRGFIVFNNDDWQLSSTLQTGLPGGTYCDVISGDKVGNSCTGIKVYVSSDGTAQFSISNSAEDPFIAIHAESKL
Method: as §1
The inhibitory activity is measured according to the method reported by Xiao et al. [30] with slight modifications. […] Starch solution was prepared by dissolving 1 g in 50 mL of 0.4 M NaOH and heated for 5 min at 100 °C. After cooling in iced water, the solution pH was adjusted to 7 with 2 M HCl and H2O was added to complete 100 mL. Sample solutions were prepared by dissolving 10 mg in 1 mL MeOH:H2O (50:50). Several dilutions in PBS (SIGMA-P4417) were made in case of getting complete enzyme inhibition. PBS solution (35 μL), substrate (35 μL) and sample (5 μL) solutions were mixed in a 96-well microtiter plate, and the mixture was pre-incubated at 37 °C for 1 min. Then, 20 μL of a 50 μg/mL α-amylase solution was added to each well. The plate was incubated for 15 min. […] The absorbance was measured in a microplate reader (EPOCH 2, Biotek Instruments Inc. Winoosky, VT, USA) at 580 nm. Inhibitory activity (%) was calculated according to the formula described by Kusano et al. [31] as follows: (1) Inhibition (%)=[1−(ABS2−ABS1)/(ABS4−ABS3)×100] where ABS1 is the absorbance of the incubated solution containing sample, starch and amylase, ABS2 is the absorbance of incubated solution containing sample and starch, ABS3 is the absorbance of incubated solution containing starch and amylase, and ABS4 is the absorbance of incubated solution containing starch. IC50 value was calculated by curve fitting of data (GraphPad Prism 5.0, GraphPad Software, Inc., La Jolla, CA, USA).

[3] = compounds and acarbose; max concentration tested 1 mM; '-' = inactive at maximum dose tested (<35% inhibition); read-out: IC50 α-amylase
[4] = read-out: IC50 α-amylase; compounds and acarbose; max concentration tested 1 mM; '-' = inactive at maximum dose tested (<35% inhibition)

`C=C(C)[C@@H]1CC[C@]2(C)CC[C@]3(C)[C@H](CC[C@@H]4[C@@]5(C)CC[C@H](OC(C)=O)C(C)(C)[C@@H]5CC[C@]43C)[C@@H]12` [Compound 1, Lupeol acetate] was tested, and the IC50 [1] was > 41.7 µM and the IC50 [2, 3] was > 62.5 µM.
With `O=C(O)/C=C\c1ccc(O)cc1` [Compound 2, Cis-p-coumaric acid] the IC50 [1] was > 41.7 µM and the IC50 [2, 4] was > 62.5 µM.
`C=C(C)[C@@H]1CC[C@]2(C)CC[C@]3(C)[C@H](CC[C@@H]4[C@@]5(C)CC[C@H](O)C(C)(C)[C@@H]5CC[C@]43C)[C@@H]12` [Compound 3, Lupeol] was tested, and the IC50 [1] was > 41.7 µM and the IC50 [2, 3] was > 62.5 µM.
`CC[C@H](CC[C@@H](C)[C@H]1CC[C@H]2[C@@H]3CC=C4C[C@@H](O)CC[C@]4(C)[C@H]3CC[C@]12C)C(C)C` [Compound 4, β-Sitosterol] was tested, and the IC50 [1] was > 41.7 µM and the IC50 [2, 3] was > 62.5 µM.
`O=C(O)/C=C/c1ccc(O)cc1` [Compound 5, Trans-p-coumaric acid] was tested, and the “enzyme inhibition (α-glucosidase)” value ([1]; at the maximum dose tested (1 mM for compounds)) was 27%, the IC50 [1] was > 41.7 µM and the IC50 [2, 4] was > 62.5 µM.
With `CCCCC/C=C\C/C=C\CCCCCCCC(=O)O` [Compound 6, Linoleic acid] the IC50 [1] was 0.42 µM and the IC50 [2, 3] was > 62.5 µM.
In the case of `Oc1cc(O)c2c(c1)O[C@H](c1ccc(O)c(O)c1)[C@@H](O)C2` [Compound 7, (+)-Catechin], the IC50 [1] is reported as 5.5 µM and the IC50 [2, 3] is reported as > 62.5 µM.
For `C[C@@H]1O[C@@H](Oc2c(-c3ccc(O)c(O)c3)oc3cc(O)cc(O)c3c2=O)[C@H](O)[C@H](O)[C@H]1O` [Compound 9, Quercitrin], the IC50 [1] was 7.77 µM and the IC50 [2, 4] was > 62.5 µM.
